Measured values as given in the NIST ThermoML archive (doi:10.1021/je050434f).

Key:
[1] = for speed of sound / mass density / viscosity: 101.33 kPa, Liquid; for speed of sound: Sing-around technique in a fixed-path interferometer; for mass density: Vibrating tube method; for surface tension liquid-gas: Pendant drop shape; for viscosity: Capillary tube (Ostwald / Ubbelohde) method
[2] = refractive index (Na D-line) (dimensionless); conditions: 101.33 kPa, Liquid, Abbe refractometer

COS(=O)(=O)[O-].Cn1cc[n+](C)c1 [1,3-dimethylimidazolium methylsulfate]
Conditions	mass density, [1] [kg/m3]	refractive index, [2]	speed of sound, [1] [m/s]	surface tension liquid-gas, [1] [mN/m]	viscosity, [1] [mPa·s]
283.15 K	1338.24	1.48659	1851	–	–
288.15 K	1334.54	1.48525	1838	60.9	–
293.15 K	1330.88	1.48392	1826	60.3	92.76
298.15 K	1327.25	1.4827	1813	59.8	72.91
303.15 K	1323.65	1.48129	1801	59.5	58.35
308.15 K	1320.09	1.47999	1789	59.1	–
313.15 K	1316.57	1.47867	1777	58.9	39.21
318.15 K	1313.05	1.47726	1765	–	–
323.15 K	1309.55	1.47593	1753	–	27.78
328.15 K	1306.06	1.47421	1742	–	–
333.15 K	1302.59	1.47294	1730	–	21.01
338.15 K	1299.14	1.47154	1719	–	–
343.15 K	1295.7	1.47027	1708	–	16.01
